Experimental data published in BindingDB's records for PubMed 7853174 (Merck Research Laboratories, 1995).

Target: T1, Type-2 angiotensin II receptor (Rattus norvegicus, UniProt P35351)
T1 sequence (P35351 whole entry): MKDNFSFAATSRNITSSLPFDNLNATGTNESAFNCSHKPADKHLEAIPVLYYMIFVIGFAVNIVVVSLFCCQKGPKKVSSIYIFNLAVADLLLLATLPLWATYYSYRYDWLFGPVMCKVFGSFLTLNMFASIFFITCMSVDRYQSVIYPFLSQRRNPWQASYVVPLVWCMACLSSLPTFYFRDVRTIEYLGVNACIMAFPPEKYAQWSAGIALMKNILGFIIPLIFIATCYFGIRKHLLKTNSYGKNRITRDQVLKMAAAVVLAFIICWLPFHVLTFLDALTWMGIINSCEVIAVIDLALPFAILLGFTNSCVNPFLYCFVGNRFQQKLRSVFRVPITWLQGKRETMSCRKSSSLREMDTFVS

Ki: 5.77 µM
Structure (SMILES): CCCc1nc(C(F)(F)C(F)(F)F)c(C(=O)O)n1Cc1ccc(-c2ccccc2-c2nnn[nH]2)cc1 [CAS_124750-95-4]
